Drawing on US20220169660A1, “CYCLIC AMINO-PYRAZINECARBOXAMIDE COMPOUNDS AND USES THEREOF” (SILVERBACK THERAPEUTICS, INC., priority 2019, published 2022), this text covers EC50 for 26 compounds.

Experiment [1] relates to TGFβ/SMAD Singling Pathway SBE reporter cell line. Nature of the experiment: TGFβ reporter assay (in vitro small molecule screening). The experiment is classed as cell-based. Conditions: SBE luciferase reporter cells, TGFβ stimulation, 18 h, luminescence. Here is the method: TGFβ/SMAD Singling Pathway SBE reporter cell line was obtained from BPS Bioscience. Cells were passed, expanded, and stored in liquid nitrogen as per the supplier's instructions with the exception that growth media is changed to DMEM-C with Geneticin (DMEM supplemented with 10% fetal bovine serum, 1×NEAA, 1 mM Pyruvate, 2 mM glutamine, 50 μg/mL penicillin, 50 U/mL streptomycin and 400 μg/mL of Geneticin). The assay media was MEM supplemented with […] fetal bovine serum, 1×NEAA, 1 mM Pyruvate, 50 μg/mL penicillin and 50 U/mL streptomycin.
Test samples (at desired concentrations diluted in assay media) were added to a 96-well assay plate, 20 μL per well. Reporter cells were harvested from the tissue culture flasks by incubation in small quantity of PBS at 37° C. for two minutes after the media in the flask is removed and cells rinsed with PBS. Cells were counted and diluted in the assay media at approximately 0.5×10^6 cells/mL and then 80 μL/well of cells were added to the assay plate containing the 20 μL/well of test samples (or media only), and incubated for approximately 5-6 hours at 37° C. in a 5% CO2 humidified incubator. After that time, 15 μL of TGFβ diluted to 12 ng/mL in the assay media was added to the plate. Controls included TGFβ titration (from 50 to 0 ng/mL) without inhibitors, and media only (without cells, inhibitor or TGFβ). Plates were incubated at 37° C. in a 5% CO2 humidified incubator for 18 h. Luciferase substrate solution is subsequently added at 100 μL per well, incubated in the dark at room temperature for 15 min, and luminescence is measured using a luminometer. EC50 values and curve fits were obtained using Prism (GraphPad Software).
(In general: Reporter assays use an easily measured gene product as a stand-in for the process of interest.)

Experiment [2] deals with T1, TGFBR2 (Homo sapiens, UniProt P37173).
T1 construct: purchased Reaction Biology Corp
T1 sequence (P37173 23-567): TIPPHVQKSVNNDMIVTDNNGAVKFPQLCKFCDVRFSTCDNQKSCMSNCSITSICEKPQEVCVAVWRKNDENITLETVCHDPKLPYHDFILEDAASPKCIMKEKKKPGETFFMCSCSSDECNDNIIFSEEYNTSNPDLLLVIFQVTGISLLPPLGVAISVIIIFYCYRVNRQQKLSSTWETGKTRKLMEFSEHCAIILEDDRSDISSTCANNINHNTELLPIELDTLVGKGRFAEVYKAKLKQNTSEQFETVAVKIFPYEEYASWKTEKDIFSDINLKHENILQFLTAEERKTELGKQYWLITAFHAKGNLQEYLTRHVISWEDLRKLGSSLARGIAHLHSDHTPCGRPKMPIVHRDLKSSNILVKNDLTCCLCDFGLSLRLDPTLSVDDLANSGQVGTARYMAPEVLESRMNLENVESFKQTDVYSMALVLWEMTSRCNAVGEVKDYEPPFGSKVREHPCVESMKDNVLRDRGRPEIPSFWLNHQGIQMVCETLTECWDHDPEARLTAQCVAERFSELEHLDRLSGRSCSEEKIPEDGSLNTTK
As to the kind of experiment: TGFBR2 RBC enzyme assay (Reaction Biology Corp.). Format: biochemical. As for the experimental part:
Compounds of the disclosure were assayed by Reaction Biology Corp. using the TGFBR2 RBC enzyme assay.

pEC50: −log10 of the molar value. Some results are limits rather than exact numbers.

With `CN1CCCOc2cc(OCCCN3C(=O)c4ccccc4C3=O)cc(c2)-c2cnc(N)c(n2)C(=O)Nc2cnccc21` [Compound 14, 2-(3-((2^5-amino-6-methyl-3-oxo-10-oxa-4,6-diaza-2(2,6)-pyrazina-5(3,4)-pyridina-1(1,3)-benzenacyclodecaphane-1^5-yl)oxy)propyl)isoindoline-1,3-dione], the pEC50 (commonly the negative decadic logarithm of the EC50, by convention in mol/L) in experiment [1] was 6.00 to 9.00; in experiment [2], 7.00 to 9.00.

For the compound `CN1CCOCc2cccc(c2)-c2cnc(N)c(n2)C(=O)Nc2cnccc21` [Compound 15, 2^5-amino-6-methyl-9-oxa-4,6-diaza-2(2,6)-pyrazina-5(3,4)-pyridina-1(1,3)-benzenacyclodecaphan-3-one], the results for the pEC50 in experiment [1] and in experiment [2] were 6.00 to 9.00 and 7.00 to 9.00, respectively.

With `CN1CCCOc2cc(OCCCN)cc(c2)-c2cnc(N)c(n2)C(=O)Nc2cnccc21` [Compound 16, 2^5-amino-1^5-(3-aminopropoxy)-6-methyl-10-oxa-4,6-diaza-2(2,6)-pyrazina-5(3,4)-pyridina-1(1,3)-benzenacyclodecaphan-3-one], the figures for the pEC50 in experiment [1] and in experiment [2] were 6.00 to 9.00 and 7.00 to 9.00, respectively.

Consider `CCCN1CCCOc2cccc(c2)-c2cnc(N)c(n2)C(=O)Nc2cnccc21` [Compound 17, 2^5-amino-6-propyl-10-oxa-4,6-diaza-2(2,6)-pyrazina-5(3,4)-pyridina-1(1,3)-benzenacyclodecaphan-3-one], for which the values for the pEC50 in experiment [1] and in experiment [2] were 6.00 to 9.00 and 7.00 to 9.00, respectively.

Regarding `CC1CCOc2cccc(c2)-c2cnc(N)c(n2)C(=O)Nc2cnccc2N1C` (stereo not shown) [Compound 18, 2^5-amino-6,7-dimethyl-10-oxa-4,6-diaza-2(2,6)-pyrazina-5(3,4)-pyridina-1(1,3)-benzenacyclodecaphan-3-one], the pEC50 was 6.00 to 9.00 in experiment [1] and 7.00 to 9.00 in experiment [2].

With `CC1CCN(C)c2ccncc2NC(=O)c2nc(cnc2N)-c2cccc(c2)O1` (stereo not shown) [Compound 19, 2^5-amino-6,9-dimethyl-10-oxa-4,6-diaza-2(2,6)-pyrazina-5(3,4)-pyridina-1(1,3)-benzenacyclodecaphan-3-one], the values for the pEC50 in experiment [1] and in experiment [2] were 6.00 to 9.00 and 7.00 to 9.00, respectively.

In the case of `CC1OCCN(C)c2ccncc2NC(=O)c2nc(cnc2N)-c2cccc1c2` (stereo not shown) [Compound 20], the pEC50 was 6.00 to 9.00 in experiment [1] and 7.00 to 9.00 in experiment [2].

As for `Nc1ncc2nc1C(=O)Nc1cnccc1OCCCOc1cccc-2c1` [Compound 21, 2^5-amino-6,10-dioxa-4-aza-2(2,6)-pyrazina-5(3,4)-pyridina-1(1,3)-benzenacyclodecaphan-3-one], the values for the pEC50 in experiment [1] and in experiment [2] were below 5.30 and below 6.00, respectively.

`Nc1ncc2nc1C(=O)Nc1cnccc1N1CCC(CC1)COc1cccc-2c1` [Compound 22, 1^5-amino-3-oxa-7-aza-1(2,6)-pyrazina-6(4,3)-pyridina-5(4,1)-piperidina-2(1,3)-benzenacyclooctaphan-8-one]: the results for the pEC50 in experiment [1] and in experiment [2] were below 5.30 and below 6.00, respectively.

For the compound `Nc1ncc2nc1C(=O)Nc1cnccc1N1CCC(CC1)Oc1cccc-2c1` [Compound 23, 1^5-amino-3-oxa-6-aza-1(2,6)-pyrazina-5(4,3)-pyridina-4(4,1)-piperidina-2(1,3)-benzenacycloheptaphan-7-one], the pEC50 was below 5.30 in experiment [1] and below 6.00 in experiment [2].

With `Nc1ncc2nc1C(=O)Nc1cnccc1N1CCC(COc3cccc-2c3)C1` (stereo not shown) [Compound 25, 1^5-amino-3-oxa-7-aza-1(2,6)-pyrazina-6(4,3)-pyridina-5(3,1)-pyrrolidina-2(1,3)-benzenacyclooctaphan-8-one], the pEC50 in experiment [1] was 6.00 to 9.00; in experiment [2], 7.00 to 9.00.

In the case of `CN1CCC(=O)Nc2cccc(c2)-c2cnc(N)c(n2)C(=O)Nc2cnccc21` [Compound 26, 2^5-amino-6-methyl-4,6,10-triaza-2(2,6)-pyrazina-5(3,4)-pyridina-1(1,3)-benzenacyclodecaphene-3,9-dione], the pEC50 was 6.00 to 9.00 in experiment [1] and 7.00 to 9.00 in experiment [2].

Turning to `CN1CCC(=O)N(C)c2cccc(c2)-c2cnc(N)c(n2)C(=O)Nc2cnccc21` [Compound 27, 2^5-amino-6,10-dimethyl-4,6,10-triaza-2(2,6)-pyrazina-5(3,4)-pyridina-1(1,3)-benzenacyclodecaphane-3,9-dione], the pEC50 in experiment [1] is 6.00 to 9.00; in experiment [2], 7.00 to 9.00.

On to `CN1CCNC(=O)c2cccc(c2)-c2cnc(N)c(n2)C(=O)Nc2cnccc21` [Compound 30, 2^5-amino-6-methyl-4,6,9-triaza-2(2,6)-pyrazina-5(3,4)-pyridina-1(1,3)-benzenacyclodecaphane-3,10-dione], for which the pEC50 was below 5.30 in experiment [1] and below 6.00 in experiment [2].

As to `CN1CCCNC(=O)c2cccc(c2)-c2cnc(N)c(n2)C(=O)Nc2cnccc21` [Compound 31, 2^5-amino-6-methyl-4,6,10-triaza-2(2,6)-pyrazina-5(3,4)-pyridina-1(1,3)-benzenacycloundecaphane-3,11-dione], the pEC50 in experiment [1] was 5.30 to 6.00; in experiment [2], 6.00 to 7.00.

On to `CN1CCCCOc2ccccc2-c2cnc(N)c(n2)C(=O)Nc2cnccc21` [Compound 34, 2^5-amino-6-methyl-11-oxa-4,6-diaza-2(2,6)-pyrazina-5(3,4)-pyridina-1(1,2)-benzenacycloundecaphan-3-one], for which the figures for the pEC50 in experiment [1] and in experiment [2] were 5.30 to 6.00 and 6.00 to 7.00, respectively.

With `Nc1ncc2nc1C(=O)Nc1cnccc1O[C@H]1CC[C@H](CC1)Oc1cccc-2c1` [Compound 43, (4^1,4^4-cis)-1^5-amino-3,5-dioxa-7-aza-1(2,6)-pyrazina-6(4,3)-pyridina-2(1,3)-benzena-4(1,4)-cyclohexanacyclooctaphan-8-one], the pEC50 in experiment [1] is below 5.30; in experiment [2] it was below 6.00.

As for `Nc1ncc2nc1C(=O)Nc1cnccc1OCCOc1ccc(Br)c-2c1` [Compound 49, 2^5-amino-16-bromo-6,9-dioxa-4-aza-2(2,6)-pyrazina-5(3,4)-pyridina-1(1,3)-benzenacyclononaphan-3-one], the pEC50 was 6.00 to 9.00 in experiment [1] and 7.00 to 9.00 in experiment [2].

With `Nc1ncc2nc1C(=O)Nc1cnccc1OCCOc1cccc-2c1` [Compound 50, 2^5-amino-6,9-dioxa-4-aza-2(2,6)-pyrazina-5(3,4)-pyridina-1(1,3)-benzenacyclononaphan-3-one], the pEC50 is 6.00 to 9.00 in experiment [1] and 7.00 to 9.00 in experiment [2].

As for `Nc1ncc2nc1C(=O)Nc1cnccc1SCCCOc1ccc(Br)c-2c1` [Compound 51, 2^5-amino-1^6-bromo-10-oxa-6-thia-4-aza-2(2,6)-pyrazina-5(3,4)-pyridina-1(1,3)-benzenacyclodecaphan-3-one], the pEC50 in experiment [1] is 6.00 to 9.00; in experiment [2], 7.00 to 9.00.

For the compound `CN1CCCNC(=O)c2cc(ccc2OCCCN)-c2cnc(N)c(n2)C(=O)Nc2cnccc21` [Compound 53, 2^5-amino-1^4-(3-aminopropoxy)-6-methyl-4,6,10-triaza-2(2,6)-pyrazina-5(3,4)-pyridina-1(1,3)-benzenacycloundecaphane-3,11-dione], the pEC50 in experiment [1] was below 5.30; in experiment [2], 6.00 to 7.00.

For `CN1CCNC(=O)c2cc(ccc2OCCCN)-c2cnc(N)c(n2)C(=O)Nc2cnccc21` [Compound 55, 2^5-amino-1^4-(3-aminopropoxy)-6-methyl-4,6,9-triaza-2(2,6)-pyrazina-5(3,4)-pyridina-1(1,3)-benzenacyclodecaphane-3,10-dione], the figures for the pEC50 in experiment [1] and in experiment [2] were below 5.30 and 6.00 to 7.00, respectively.

In the case of `CN1CCN(C)c2ccncc2NC(=O)c2nc(cnc2N)-c2ccc(OCCCN)c(c2)C1=O` [Compound 56, 2^5-amino-1^4-(3-aminopropoxy)-6,9-dimethyl-4,6,9-triaza-2(2,6)-pyrazina-5(3,4)-pyridina-1(1,3)-benzenacyclodecaphene-3,10-dione], the pEC50 in experiment [1] is 5.30 to 6.00; in experiment [2], 7.00 to 9.00.

Consider `CN1C[C@@H](CNCc2ccccc2)Oc2ccccc2-c2cnc(N)c(n2)C(=O)Nc2cnccc21` [Compound 57, (R)-2^5-amino-8-((benzylamino)methyl)-6-methyl-9-oxa-4,6-diaza-2(2,6)-pyrazin-5(3,4)-pyridina-1(1,2)-benzenacyclononaphan-3-one], for which the figures for the pEC50 in experiment [1] and in experiment [2] were 5.30 to 6.00 and below 6.00, respectively.

As to `CN1C[C@H](CN)Oc2ccccc2-c2cnc(N)c(n2)C(=O)Nc2cnccc21` [Compound 58, (S)-2^5-amino-8-(aminomethyl)-6-methyl-9-oxa-4,6-diaza-2(2,6)-pyrazina-5(3,4)-pyridina-1(1,2)-benzenacyclononaphan-3-one], the pEC50 in experiment [1] was 5.30 to 6.00; in experiment [2], below 6.00.

With `CN1C[C@H](CNCc2ccccc2)Oc2ccccc2-c2cnc(N)c(n2)C(=O)Nc2cnccc21` [Compound 59, (S)-2^5-amino-8-((benzylamino)methyl)-6-methyl-9-oxa-4,6-diaza-2(2,6)-pyrazina-5(3,4)-pyridina-1(1,2)-benzenacyclononaphan-3-one], the results for the pEC50 in experiment [1] and in experiment [2] were below 5.30 and below 6.00, respectively.
